This note sets out measurements from ChEMBL document CHEMBL1201862, “PubChem BioAssay data set” (2004).

Among the test systems are HCC 2998; CCRF-CEM; NCI-H460; IGROV-1; SNB-19; EKVX; HOP-92; SN12C; HT-29; OVCAR-8; Malme-3M; SF-295; MOLT-4; SK-MEL-5; ACHN; KM12; RPMI-8226; HCT-15; U-251; OVCAR-4.
What all share (test): NCI-60 cell line screen, 48 h

SMILES strings stand for the structures.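 Interpolation was linear, between the two tested concentrations surrounding the appropriate level; five concentrations were tested over 48 hours in 96-well plates. GI50 marks 50% less growth.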 Active and inactive are the calls of the source. Cut-off read from the data, not from the text of the source: active = GI50 up to about 1.1 µM and inactive = higher. Bounds are passed on as bounds.

Turning to `CC(C)(C)[Si](OC1CCOC1=O)(c1ccccc1)c1ccccc1` (stereo not drawn), the GI50 was 18.9 µM (inactive) in the experiment on HCC 2998; 25.6 µM (inactive) in the experiment on CCRF-CEM; 18.7 µM (inactive) with NCI-H460; 15.7 µM (inactive) with IGROV-1; 29.6 µM (inactive) in the experiment with SNB-19; 31.3 µM (inactive) in the experiment with EKVX. Further, the GI50 was > 10 µM (inactive) with HOP-92; 17.1 µM (inactive) in the experiment with SN12C; 15.3 µM (inactive) in the experiment on HT-29; 23.4 µM (inactive) in the experiment on OVCAR-8; 16.5 µM (inactive) in the experiment on Malme-3M; 16 µM (inactive) with SF-295. Besides, the GI50 was 17.5 µM (inactive) in the experiment with MOLT-4; 13.4 µM (inactive) with SK-MEL-5; 19.1 µM (inactive) in the experiment on ACHN; > 10 µM (inactive) with KM12; 29 µM (inactive) in the experiment on RPMI-8226; 18.5 µM in the experiment with HCT-15. In the experiment with U-251, the GI50 is 14.7 µM (inactive).
`C=CCn1c(=O)ccn(COCCO)c1=O`: the GI50 with HCC 2998 was > 100 µM (inactive); in the experiment with CCRF-CEM, > 100 µM (inactive); with NCI-H460 it was > 100 µM (inactive); with IGROV-1, > 100 µM (inactive); with SNB-19, 25.8 µM (inactive); in the experiment on EKVX it was > 100 µM (inactive). Further, the GI50 in the experiment with HOP-92, in the experiment with SN12C, in the experiment on HT-29, in the experiment with OVCAR-8, in the experiment on Malme-3M and in the experiment on MOLT-4 was > 100 µM (inactive) in each case. Moreover, the GI50 with SK-MEL-5, with ACHN, with OVCAR-4, in the experiment on KM12, in the experiment with RPMI-8226 and in the experiment with U-251 was > 100 µM (inactive) throughout.
As for `O=NN(CCCl)C(=O)N[C@H]1CC[C@H](C(=O)O)CC1`, the GI50 with HCC 2998 was > 100 µM (inactive); in the experiment on CCRF-CEM, 36.3 µM (inactive); in the experiment on NCI-H460, 44.6 µM (inactive); in the experiment with IGROV-1, > 100 µM (inactive); in the experiment on SNB-19, > 61.1 µM (inactive); with EKVX, > 100 µM (inactive). Moreover, the GI50 is > 100 µM (inactive) with HOP-92; > 100 µM (inactive) in the experiment on SN12C; > 100 µM (inactive) in the experiment with HT-29; > 100 µM (inactive) in the experiment on OVCAR-8; 94.8 µM (inactive) in the experiment on Malme-3M; 34.8 µM (inactive) with SF-295. Moreover, the GI50 is 5.32 µM (inactive) in the experiment with MOLT-4; > 31.6 µM (inactive) in the experiment with SK-MEL-5; > 100 µM (inactive) with OVCAR-4; > 100 µM (inactive) in the experiment with KM12; > 66.8 µM (inactive) in the experiment on RPMI-8226; greater than 100 µM in the experiment on HCT-15. For the same compound, in the experiment with U-251, the GI50 is 35.8 µM (inactive).
Turning to `CCOP(=Nc1ccc(N(C)C)cc1)(OCC)OCC`, the GI50 in the experiment on HCC 2998, with NCI-H460, with IGROV-1, in the experiment on SNB-19, in the experiment with EKVX and in the experiment with HOP-92 was > 100 µM (inactive) each time. The GI50 in the experiment on OVCAR-8, in the experiment on Malme-3M, in the experiment on SF-295, in the experiment with MOLT-4, in the experiment with SK-MEL-5 and in the experiment with ACHN was > 100 µM (inactive) each time. Also, the GI50 with OVCAR-4 was > 100 µM (inactive); with KM12, > 100 µM (inactive); in the experiment on RPMI-8226, > 100 µM (inactive); in the experiment with HCT-15 it was greater than 100 µM; with U-251 it was > 100 µM (inactive).
`NS(=O)(=O)c1cc2c(cc1Cl)NC(C(=O)NNC(=O)c1ccncc1)=NS2(=O)=O`: the GI50 with HCC 2998, with CCRF-CEM, in the experiment with NCI-H460, in the experiment with IGROV-1, with SNB-19 and in the experiment with EKVX was > 100 µM (inactive) in each case. Also, the GI50 in the experiment on HOP-92, with SN12C, with HT-29, in the experiment on OVCAR-8, in the experiment on Malme-3M and with SF-295 was > 100 µM (inactive) in each case. Moreover, the GI50 was > 100 µM (inactive) in the experiment with MOLT-4; > 100 µM (inactive) with SK-MEL-5; > 100 µM (inactive) with ACHN; > 100 µM (inactive) with OVCAR-4; > 100 µM (inactive) in the experiment with KM12; greater than 100 µM in the experiment on HCT-15.
In the case of `CC[C@@H]1C[C@@H]2CN3CCc4c([nH]c5ccc(OC)cc45)C(COC(=O)c4ccc(OC)c(OC)c4)(C2)C13`, the GI50 is 20.3 µM (inactive) in the experiment on HCC 2998; 14.3 µM (inactive) with CCRF-CEM; 21.3 µM (inactive) in the experiment with NCI-H460; 20.2 µM (inactive) with IGROV-1; 37.6 µM (inactive) in the experiment with SNB-19; 53.5 µM (inactive) with EKVX. Also, the GI50 in the experiment on HOP-92 was 10 µM (inactive); with SN12C, 17.4 µM (inactive); with HT-29, 7.82 µM (inactive); in the experiment with OVCAR-8, 31.6 µM (inactive); with Malme-3M, > 10 µM (inactive); with SF-295, 19.5 µM (inactive). For the same compound, the GI50 was 11.4 µM (inactive) with MOLT-4; 24.4 µM (inactive) in the experiment with ACHN; 26.4 µM (inactive) in the experiment on OVCAR-4; 23.8 µM (inactive) in the experiment on KM12; 16.1 µM (inactive) with RPMI-8226; 18.4 µM in the experiment on HCT-15. The GI50 in the experiment on U-251 was 16.5 µM (inactive).
As for `C=C1C(=O)C[C@@]23CCC[C@@]12CC(OCOC)C3` (stereo partly drawn), the GI50 in the experiment on HCC 2998 is 6.35 µM (inactive); in the experiment on CCRF-CEM it was 1.62 µM (inactive); with NCI-H460, 2.74 µM (inactive); with IGROV-1 it was 1.85 µM (inactive); in the experiment with SNB-19, 14.6 µM (inactive); with EKVX, 6.46 µM (inactive). In addition, the GI50 with HOP-92 was 2.32 µM (inactive); in the experiment with SN12C, 1.93 µM (inactive); in the experiment with HT-29 it was 1.99 µM (inactive); with OVCAR-8, 3.09 µM (inactive); with Malme-3M, 2.84 µM (inactive); with SF-295, 5.3 µM (inactive). Further, the GI50 in the experiment on MOLT-4 is 2.5 µM (inactive); with SK-MEL-5, 3.33 µM (inactive); with OVCAR-4, 2.19 µM (inactive); in the experiment with KM12, 3.08 µM (inactive); in the experiment on RPMI-8226, 2.55 µM (inactive); in the experiment with HCT-15, 1.36 µM. In addition, the GI50 in the experiment on U-251 was 8.47 µM (inactive).
For the compound `c1cc2nnc1SCCCSc1ccc(nn1)SCCCS2`, the GI50 with HCC 2998 is > 37.8 µM (inactive); with CCRF-CEM, > 21.2 µM (inactive); in the experiment on IGROV-1 it was > 36.7 µM (inactive); with SNB-19 it was 33.1 µM (inactive); in the experiment with EKVX, > 100 µM (inactive); with HOP-92, 38.4 µM (inactive). The GI50 in the experiment with SN12C is > 35.8 µM (inactive); in the experiment on HT-29, > 30.2 µM (inactive); in the experiment on OVCAR-8, > 39.6 µM (inactive); in the experiment with Malme-3M it was > 48.8 µM (inactive); with SF-295, 20.5 µM (inactive); in the experiment with MOLT-4, > 20.8 µM (inactive). Further, the GI50 in the experiment with SK-MEL-5 was 29.1 µM (inactive); in the experiment on ACHN, > 43.7 µM (inactive); with OVCAR-4, 16.1 µM (inactive); with KM12 it was > 35.6 µM (inactive); in the experiment on RPMI-8226 it was > 25.3 µM (inactive); with U-251, 17.3 µM (inactive).
Take `COc1ccc(C2CC(c3sc(Nc4ccc(C)cc4)nc3C)=NN2)cc1` (stereo not drawn): the GI50 in the experiment on HCC 2998 is 15.8 µM (inactive); with CCRF-CEM, 11.1 µM (inactive); in the experiment with NCI-H460, 14.9 µM (inactive); with IGROV-1 it was > 40.8 µM (inactive); in the experiment on SNB-19, 15.7 µM (inactive); in the experiment with EKVX, 20.5 µM (inactive). Besides, the GI50 with HOP-92 was 14.2 µM (inactive); in the experiment with SN12C it was 14.1 µM (inactive); in the experiment with HT-29, 11.8 µM (inactive); in the experiment on OVCAR-8 it was 15.5 µM (inactive); in the experiment on Malme-3M, > 10 µM (inactive); with SF-295, 15 µM (inactive). For the same compound, the GI50 in the experiment with MOLT-4 is 8.34 µM (inactive); in the experiment with SK-MEL-5 it was 16 µM (inactive); with OVCAR-4, 13.3 µM (inactive); in the experiment on KM12, 15.2 µM (inactive); in the experiment on RPMI-8226, 12.4 µM (inactive); in the experiment with HCT-15 it was 15.1 µM. In the experiment with U-251, the GI50 was 14.8 µM (inactive).
`CCCCCCCCCCCCCCCCCC(=O)OCC(COC(=O)CCCN)OC(=O)CCCN` (stereo not drawn): the GI50 with HCC 2998 is 18.5 µM (inactive); with CCRF-CEM, 28.8 µM (inactive); with NCI-H460, 14.9 µM (inactive); in the experiment on IGROV-1, 2.91 µM (inactive); in the experiment on SNB-19 it was 21.8 µM (inactive); in the experiment on EKVX, 20.8 µM (inactive). The GI50 is 13.4 µM (inactive) in the experiment with HOP-92; 17.8 µM (inactive) with SN12C; 16.1 µM (inactive) with HT-29; 18.5 µM (inactive) in the experiment with OVCAR-8; 23.2 µM (inactive) in the experiment with Malme-3M; 19.4 µM (inactive) with SF-295. Also, the GI50 with MOLT-4 was 24.8 µM (inactive); with ACHN, > 100 µM (inactive); in the experiment on OVCAR-4, 22 µM (inactive); in the experiment on KM12, 15.5 µM (inactive); in the experiment with HCT-15 it was 23.7 µM; in the experiment on U-251, 20.6 µM (inactive).
With `O=P(CCOc1ccccc1OCCP(=O)(c1ccccc1)c1ccc2c(c1)OCCOCCOCCOCCO2)(c1ccccc1)c1ccc2c(c1)OCCOCCOCCOCCO2` (stereo not drawn), the GI50 in the experiment on HCC 2998, in the experiment with CCRF-CEM, in the experiment with NCI-H460, with IGROV-1, in the experiment with SNB-19 and with EKVX was > 100 µM (inactive) throughout. Moreover, the GI50 with HOP-92, in the experiment on SN12C, in the experiment on HT-29, in the experiment with OVCAR-8, in the experiment with Malme-3M and with SF-295 was > 100 µM (inactive) throughout. In addition, the GI50 is > 100 µM (inactive) in the experiment on MOLT-4; > 100 µM (inactive) in the experiment with SK-MEL-5; > 100 µM (inactive) in the experiment on ACHN; > 100 µM (inactive) with OVCAR-4; > 100 µM (inactive) in the experiment with RPMI-8226; greater than 100 µM in the experiment with HCT-15. Also, in the experiment with U-251, the GI50 is > 100 µM (inactive).
